In PMC7576608, “Mechanisms of telomerase inhibition by oxidized and therapeutic dNTPs” (Nature Communications, 2020):

Assays:
telomerase [1] = assay: Direct telomerase assay in the absence or presence of POT1-TPP1 (processivity R1/2); format: biochemical, human; settings: analog substituted for its natural dNTP
From the text: Next we tested whether the telomerase processivity factor POT1–TPP1 modulates modified dNTP inhibition of telomerase. POT1 binds to the telomeric ssDNA overhang, requiring the minimum sequence of 5′-[…]-3′[38]. Inclusion of POT1-binding partner TPP1, increases the binding affinity for telomeric DNA ten-fold compared to POT1 alone. POT1–TPP1 recruits telomerase to telomeres in vivo[39], and greatly increases telomerase repeat processivity. Therefore, we reasoned that POT1–TPP1 may overcome inhibition by the modified dNTPs and enhance telomerase processivity. We conducted telomerase extension reactions with radiolabeled primer in the presence of POT1–TPP1, and used a primer with a single mutation ([…]; underlined G to C mutation)[40] to ensure POT1–TPP1 is positioned at the 5′ portion of the primer (Fig. 5). This provides a homogenous substrate for telomerase extension.
For these reactions, we replaced the natural dNTP with the modified dNTP analog, while the other dNTPs remained at cellular relevant concentrations.
Direct telomerase assays were conducted in the absence or presence of 500 nM POT1 and 500 nM TPP1, as indicated, and 5 nM ^32P-end labeled primer ([…]) designed to position POT1 at the 10 nt primer 5′ end. Reactions contained cellular-concentration dNTPs (lanes 1 and 2), except when the natural dNTP was substituted with the oxidized dNTP a or therapeutic dNTP b analog (lanes 3–8), as indicated. […] Letters on the right indicate template base; P indicates unextended 18-mer primer. c Processivity was calculated on the basis of total products normalized to loading control. Images are representative of, and data are shown as mean ± s.d. from 3 to 5 independent experiments. Source data are provided as a Source Data file.
(§1) The reactions were started by the addition of 3 μl of immunopurified telomerase eluent, incubated at 37 °C for 1 h, then terminated with 2 μl of 0.5 mM EDTA and heat inactivated at 65 °C for 20 min. An equal volume of loading buffer (94% formamide, 0.1× TBE, 0.1% bromophenol blue, 0.1% xylene cyanol) was added to the reaction eluent. The samples were heat denatured for 10 min at 100 °C and loaded onto a 14% denaturing acrylamide gel (7 M urea, 1× TBE) and electrophoresed for 90 min at constant 38 W. Samples were imaged using a Typhoon phosphorimager (GE Healthcare). Percent primer extension was calculated with ImageQuant TL 8.2 by measuring the intensity of each product band and dividing by the total radioactivity in the lane or total products, as indicated in the figure legends.
The processivity was calculated as described[40],[67]. Repeat processivity from the direct telomerase extension assays was calculated as R1/2 (equivalent to the half-time for decay in an exponential time course), which represents the median length of DNA product formed, expressed in terms of number of telomere repeats. First, the total volume counts for each product band extend by one or more telomere repeats were obtained using Image Quant TL. The volume counts were then normalized by dividing by the number of radiolabeled guanosines incorporated into the extended products based on the number of repeats added, termed corrected volume (corr vol). The “percent left behind” (%LB) was calculated for each product band by summing the counts for that product band and for every product band below (shorter products), divided by the total counts for the lane, and then multiplied by 100. The natural log of (100−%LB) was calculated and then plotted vs. repeat number for each product length. A linear regression line was fit to the data to determine the slope of the line.

telomerase [2] = target: telomerase (Homo sapiens, UniProt O14746); assay: Telomerase extension of 32P-end labeled primers with a single dNTP (percent primer extension); format: biochemical; set-up: made in house; anti-FLAG immunopurification, eluted with 3xFLAG peptide; settings: for Percent Primer Extension: 50 μM single dNTP
Experimental: A chain terminating mechanism of inhibition requires that the enzyme adds the modified dNTP to a growing chain, which then blocks further synthesis. […] To test whether telomerase can incorporate other modified dNTPs, and whether the incorporation is chain terminating and/or mutagenic, we conducted direct extension assays in which we radiolabeled the primer and added increasing concentrations (5, 50, and 500 μM) of a single dNTP (Supplementary Figs. 3, 5, 6, and 7). Since modified dNTPs may prefer mispairing, we tested various primers in which the first template base was either rA3, rC1, or rU5 (primer 1, primer 2, and primer 3, respectively), and compared the percent primer extension for each dNTP at the middle 50 μM concentration (Fig. 3). Primers 1 and 2 initiate synthesis at consecutive rA3rA4 or rC1rC2 template bases, respectively, so we could examine both incorporation and extension to the next base. However, the telomerase template lacks tandem rU residues.
Fig. 3 Telomerase insertion of modified dNTPs. Telomerase reactions were conducted with 5 nM ^32P-end labeled primer a Primer 1 (TTAGGG)3, b Primer 2 (GGTTAG)3, or c Primer 3 (AGGGTT)3. Reactions contained cellular-concentration dNTPs (lane 1) or 50 μM of indicated natural dNTP (blue, lanes 2–5), oxidized dNTP (red, lanes 6–8), or therapeutic dNTP (green, lanes 9–11). Products were separated on denaturing gels. […] Letters on the right indicate the template base; P indicates unextended 18-mer primer. Graphs represent the percent of total primers extended. Images are representative of, and data are shown as mean ± s.d. from, three independent experiments. Source data are provided as a Source Data file.
as §1, with “An” for “The reactions were started by the addition of 3 μl of immunopurified telomerase eluent, incubated at 37 °C for 1 h, then terminated with 2 μl of 0.5 mM EDTA and heat inactivated at 65 °C for 20 min. An”
Telomerase reactions were conducted with 5 nM 32P-end labeled primer (a) Primer 1 (TTAGGG)3, (b) Primer 2 (GGTTAG)3, or (c and d) Primer 3 […]
(d) reactions contained 3 µg/µl RNase A. Products were separated on denaturing gels. Letters on the right indicate the template base; P indicates unextended 18-mer primer. Graphs represent the percent of total primers extended for the reactions in panels a – c from one experiment. Panel d is a representative image from three independent experiments. Source data are provided as a Source Data file. […]
Supplementary Fig 4. Time course reactions with telomerase or pol β. (a, b) Telomerase reactions were conducted with 5 nM 32P-end labeled primer (a) Primer 4 (GTTAGG)3 or (b) Primer 2 (GGTTAG)3.
Products were separated on denaturing gels. Letters on the right indicate the template base; P indicates […]
unextended 18-mer primer. […]

[3] = Primer 2 (GGTTAG)3, first template base rC1, Mean of three experiments
[4] = Primer 2 (GGTTAG)3, first template base rC1, single experiments n1-n3

telomerase (Homo sapiens, UniProt O14746), sequence (O14746 whole entry): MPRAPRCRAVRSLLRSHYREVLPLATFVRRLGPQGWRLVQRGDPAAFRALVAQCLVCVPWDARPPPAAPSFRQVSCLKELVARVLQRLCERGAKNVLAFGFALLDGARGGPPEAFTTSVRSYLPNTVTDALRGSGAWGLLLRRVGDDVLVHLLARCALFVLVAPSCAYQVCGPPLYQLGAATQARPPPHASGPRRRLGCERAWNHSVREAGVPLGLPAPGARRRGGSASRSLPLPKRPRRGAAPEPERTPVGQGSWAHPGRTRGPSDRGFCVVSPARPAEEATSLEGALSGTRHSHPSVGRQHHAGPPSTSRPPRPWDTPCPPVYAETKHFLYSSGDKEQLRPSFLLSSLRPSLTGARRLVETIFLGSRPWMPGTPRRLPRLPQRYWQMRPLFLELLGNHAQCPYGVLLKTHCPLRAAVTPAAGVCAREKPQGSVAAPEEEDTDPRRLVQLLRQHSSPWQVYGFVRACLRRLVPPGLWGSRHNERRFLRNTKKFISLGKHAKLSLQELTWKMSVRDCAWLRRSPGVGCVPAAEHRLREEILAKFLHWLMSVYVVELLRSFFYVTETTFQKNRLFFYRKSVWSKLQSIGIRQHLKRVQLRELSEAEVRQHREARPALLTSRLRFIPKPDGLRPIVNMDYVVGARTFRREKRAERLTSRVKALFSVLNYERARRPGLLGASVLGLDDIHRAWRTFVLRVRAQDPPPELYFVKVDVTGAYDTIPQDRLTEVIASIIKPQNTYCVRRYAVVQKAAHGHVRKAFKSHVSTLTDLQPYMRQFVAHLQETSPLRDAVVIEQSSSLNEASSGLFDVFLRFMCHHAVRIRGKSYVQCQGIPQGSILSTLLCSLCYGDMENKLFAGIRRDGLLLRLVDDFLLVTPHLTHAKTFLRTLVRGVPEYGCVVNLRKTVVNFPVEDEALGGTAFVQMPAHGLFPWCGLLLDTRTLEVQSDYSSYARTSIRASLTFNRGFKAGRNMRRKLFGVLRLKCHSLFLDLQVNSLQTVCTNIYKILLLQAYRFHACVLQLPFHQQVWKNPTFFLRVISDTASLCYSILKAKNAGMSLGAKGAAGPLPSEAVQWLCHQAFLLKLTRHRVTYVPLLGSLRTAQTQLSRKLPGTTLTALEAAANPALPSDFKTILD

For `Cc1cn([C@H]2C[C@H](N=[N+]=[N-])[C@@H](CO[P@](=O)(O)O[P@](=O)(O)OP(=O)(O)O)O2)c(=O)[nH]c1=O` [AZT-TP], the “Effect of POT1-TPP1 on telomerase in presence of analog (in words)” value (telomerase [1]) was “failed to stimulate telomerase processivity”, the “Percent Primer Extension” value (telomerase [2]; [3]) was 0.00% and the “Percent Primer Extension” value (telomerase [2]; [4]) was 0.00%. For the same molecule, the “Percent Primer Extension” value (telomerase [2]; Primer 3 (AGGGTT)3, first template base rU5, Mean of three experiments) was 0.00%, the “Percent Primer Extension” value (telomerase [2]; Primer 3 (AGGGTT)3, first template base rU5, single experiments n1-n3) was 0.00% and the “Chain termination after telomerase insertion (in words)” value (telomerase [2]; end-labeled primers, single dNTP) was “genuine telomerase chain terminators”.

In the case of `Nc1nc2c(ncn2C2CC(O)C(COP(=O)(O)OP(=O)(O)OP(=O)(O)O)O2)c(=O)[nH]1` (stereo not shown) [dGTP], the “% Primer Extension” value (telomerase [2]; Primer 1, 5 µM dGTP, one experiment) was 5.54%, the “% Primer Extension” value (telomerase [2]; Primer 1, 50 µM dGTP, one experiment) was 14.06% and the “% Primer Extension” value (telomerase [2]; Primer 1, 500 µM dGTP, one experiment) was 18.26%. For the same molecule, the “% Primer Extension” value (telomerase [2]; Primer 2, 5 µM dGTP, one experiment) was 20.91%, the “% Primer Extension” value (telomerase [2]; Primer 2, 50 µM dGTP, one experiment) was 31.85% and the “% Primer Extension” value (telomerase [2]; Primer 2, 500 µM dGTP, one experiment) was 40.91%. The “% Primer Extension” value (telomerase [2]; Primer 3, 5 µM dGTP, one experiment) was 2.22%, the “% Primer Extension” value (telomerase [2]; Primer 3, 50 µM dGTP, one experiment) was 6.90% and the “% Primer Extension” value (telomerase [2]; Primer 3, 500 µM dGTP, one experiment) was 12.81%. The “% Primer Extension” value (telomerase [2]; time course, 50 μM dGTP, primer 2 (GGTTAG)3, 0 minutes) was 0.00%, the “% Primer Extension” value (telomerase [2]; time course, 50 μM dGTP, primer 2 (GGTTAG)3, 1 minute) was 1.70% and the “% Primer Extension” value (telomerase [2]; time course, 50 μM dGTP, primer 2 (GGTTAG)3, 3 minutes) was 2.22%. The “% Primer Extension” value (telomerase [2]; time course, 50 μM dGTP, primer 2 (GGTTAG)3, 5 minutes) was 2.61%, the “% Primer Extension” value (telomerase [2]; time course, 50 μM dGTP, primer 2 (GGTTAG)3, 9 minutes) was 2.82% and the “% Primer Extension” value (telomerase [2]; time course, 50 μM dGTP, primer 2 (GGTTAG)3, 15 minutes) was 7.50%. For the same molecule, the “% Primer Extension” value (telomerase [2]; time course, 50 μM dGTP, primer 2 (GGTTAG)3, 30 minutes) was 7.57%, the “% Primer Extension” value (telomerase [2]; time course, 50 μM dGTP, primer 2 (GGTTAG)3, 45 minutes) was 7.80% and the “% Primer Extension” value (telomerase [2]; time course, 50 μM dGTP, primer 4 (GTTAGG)3, 0 minutes) was 0.00%. For the same molecule, the “% Primer Extension” value (telomerase [2]; time course, 50 μM dGTP, primer 4 (GTTAGG)3, 1 minute) was 1.79%, the “% Primer Extension” value (telomerase [2]; time course, 50 μM dGTP, primer 4 (GTTAGG)3, 3 minutes) was 0.86% and the “% Primer Extension” value (telomerase [2]; time course, 50 μM dGTP, primer 4 (GTTAGG)3, 5 minutes) was 1.17%. For the same molecule, the “% Primer Extension” value (telomerase [2]; time course, 50 μM dGTP, primer 4 (GTTAGG)3, 9 minutes) was 1.23%, the “% Primer Extension” value (telomerase [2]; time course, 50 μM dGTP, primer 4 (GTTAGG)3, 15 minutes) was 1.72% and the “% Primer Extension” value (telomerase [2]; time course, 50 μM dGTP, primer 4 (GTTAGG)3, 30 minutes) was 4.10%. For the same molecule, the “% Primer Extension” value (telomerase [2]; time course, 50 μM dGTP, primer 4 (GTTAGG)3, 45 minutes) was 8.71%.

`Nc1ncnc2c1ncn2C1CC(O)C(COP(=O)(O)OP(=O)(O)OP(=O)(O)O)O1` (stereo not shown) [dATP] was tested, and the “Percent Primer Extension” value (telomerase [2]; Primer 1 (TTAGGG)3, first template base rA3, Mean of three experiments) was 3.48%, the “% Primer Extension” value (telomerase [2]; Primer 1, 5µM dNTP) was 0.00% and the “% Primer Extension” value (telomerase [2]; Primer 1, 50µM dNTP) was 1.84%. The “% Primer Extension” value (telomerase [2]; Primer 1, 500µM dNTP) was 3.63%, the “Percent Primer Extension” value (telomerase [2]; [3]) was 0.00% and the “Percent Primer Extension” value (telomerase [2]; [4]) was 0.00%. For the same molecule, the “% Primer Extension” value (telomerase [2]; Primer 2, 5µM dNTP) was 0.00%, the “% Primer Extension” value (telomerase [2]; Primer 2, 50µM dNTP) was 0.00% and the “% Primer Extension” value (telomerase [2]; Primer 2, 500µM dNTP) was 2.50%. For the same molecule, the “% Primer Extension” value (telomerase [2]; Primer 3, 5µM dNTP) was 11.52%, the “% Primer Extension” value (telomerase [2]; Primer 3, 50µM dNTP) was 14.88% and the “% Primer Extension” value (telomerase [2]; Primer 3, 500µM dNTP) was 23.85%.
